Reference: ChEMBL document CHEMBL1201862, “PubChem BioAssay data set” (2004)
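A five-concentration, 48-hour dose response in 96-well plates underlies each endpoint, interpolated linearly between surrounding concentrations. GI50 = concentration required for 50% inhibition of growth.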 Calls of active or inactive are those of the source. Cut-off read from the data, not from the text of the source: active = GI50 up to about 1.1 µM and inactive = higher.

Key:
Experiment in all cases: DTP human tumour cell line panel, 48 h
NCI-H23 = system: NCI-H23
SNB-78 = system: SNB-78
DMS-273 = system: DMS-273
M14 = system: M14
SN12C = system: SN12C
UACC-62 = system: UACC-62
TK-10 = system: TK-10
HOP-92 = system: HOP-92
SF-539 = system: SF-539
HOP-62 = system: HOP-62
HCC 2998 = system: HCC 2998
COLO 205 = system: COLO 205
HCT-15 = system: HCT-15
UACC-257 = system: UACC-257
RXF 393 = system: RXF 393
OVCAR-4 = system: OVCAR-4
LXFL 529 = system: LXFL 529
CCRF-CEM = system: CCRF-CEM
SNB-19 = system: SNB-19
SK-MEL-2 = system: SK-MEL-2
DMS-114 = system: DMS-114
OVCAR-3 = system: OVCAR-3
NCI-H522 = system: NCI-H522
NCI-H460 = system: NCI-H460
HCT-116 = system: HCT-116
RPMI-8226 = system: RPMI-8226
SNB-75 = system: SNB-75
SK-MEL-28 = system: SK-MEL-28
DLD-1 = system: DLD-1
KM12 = system: KM12
SF-268 = system: SF-268
ACHN = system: ACHN
HOP-18 = system: HOP-18
EKVX = system: EKVX
OVCAR-8 = system: OVCAR-8
KM-20L2 = system: KM-20L2
K562 = system: K562
MOLT-4 = system: MOLT-4
Malme-3M = system: Malme-3M
SK-OV-3 = system: SK-OV-3
786-0 = system: 786-0
IGROV-1 = system: IGROV-1
A498 = system: A498
OVCAR-5 = system: OVCAR-5
M19-MEL = system: M19-MEL
U-251 = system: U-251
HL-60 = system: HL-60
UO-31 = system: UO-31
HT-29 = system: HT-29
SF-295 = system: SF-295
LOX IMVI = system: LOX IMVI
NCI-H226 = system: NCI-H226
CAKI-1 = system: CAKI-1
SR = system: SR
A549 = system: A549
SW-620 = system: SW-620
SK-MEL-5 = system: SK-MEL-5
XF498 = system: XF498

Compound: Cc1cc2c(c(C(N)=O)c1C)-c1cc(Cl)cc(Cl)c1C2=O
- GI50 (NCI-H23): > 100 µM (inactive)
- GI50 (SNB-78): 41.3 µM (inactive)
- GI50 (DMS-273): > 100 µM (inactive)
- GI50 (M14): > 100 µM (inactive)
- GI50 (SN12C): > 100 µM (inactive)
- GI50 (UACC-62): > 100 µM (inactive)
- GI50 (TK-10): > 100 µM (inactive)
- GI50 (HOP-92): > 100 µM (inactive)
- GI50 (SF-539): 90.2 µM (inactive)
- GI50 (HOP-62): > 100 µM (inactive)
- GI50 (HCC 2998): > 100 µM (inactive)
- GI50 (COLO 205): > 100 µM (inactive)
- GI50 (HCT-15): > 100 µM
- GI50 (UACC-257): > 100 µM (inactive)
- GI50 (RXF 393): > 100 µM (inactive)
- GI50 (OVCAR-4): > 100 µM (inactive)
- GI50 (LXFL 529): > 100 µM (inactive)
- GI50 (CCRF-CEM): > 100 µM (inactive)
- GI50 (SNB-19): 79.4 µM (inactive)
- GI50 (SK-MEL-2): > 100 µM (inactive)
- GI50 (DMS-114): > 100 µM (inactive)
- GI50 (OVCAR-3): > 100 µM (inactive)
- GI50 (NCI-H522): > 100 µM (inactive)
- GI50 (NCI-H460): > 100 µM (inactive)
- GI50 (HCT-116): > 100 µM (inactive)
- GI50 (RPMI-8226): > 100 µM (inactive)
- GI50 (SNB-75): 22.6 µM (inactive)
- GI50 (SK-MEL-28): > 100 µM (inactive)
- GI50 (DLD-1): > 100 µM (inactive)
- GI50 (KM12): > 100 µM (inactive)
- GI50 (SF-268): 97.7 µM (inactive)
- GI50 (ACHN): > 100 µM (inactive)
- GI50 (HOP-18): > 100 µM (inactive)
- GI50 (EKVX): 58.9 µM (inactive)
- GI50 (OVCAR-8): 37.7 µM (inactive)
- GI50 (KM-20L2): > 100 µM (inactive)
- GI50 (K562): > 100 µM (inactive)
- GI50 (MOLT-4): > 100 µM (inactive)
- GI50 (Malme-3M): > 100 µM (inactive)
- GI50 (SK-OV-3): 57.4 µM (inactive)
- GI50 (786-0): 60.5 µM (inactive)
- GI50 (IGROV-1): > 100 µM (inactive)
- GI50 (A498): 54.6 µM (inactive)
- GI50 (OVCAR-5): > 100 µM (inactive)
- GI50 (M19-MEL): > 100 µM (inactive)
- GI50 (U-251): 30.7 µM (inactive)
- GI50 (HL-60): > 100 µM (inactive)
- GI50 (UO-31): > 100 µM (inactive)
- GI50 (HT-29): > 100 µM (inactive)
- GI50 (SF-295): 73.8 µM (inactive)
- GI50 (LOX IMVI): 93.3 µM (inactive)

Compound: CC(=O)Nc1c(C)ccc2c1C(=O)c1ccccc1C2=O
- GI50 (NCI-H226): > 100 µM (inactive)
- GI50 (SNB-78): > 100 µM (inactive)
- GI50 (DMS-273): > 100 µM (inactive)
- GI50 (M14): > 100 µM (inactive)
- GI50 (SN12C): > 100 µM (inactive)
- GI50 (UACC-62): > 100 µM (inactive)
- GI50 (TK-10): > 100 µM (inactive)
- GI50 (HOP-92): > 100 µM (inactive)
- GI50 (SF-539): > 100 µM (inactive)
- GI50 (HOP-62): > 100 µM (inactive)
- GI50 (HCC 2998): > 100 µM (inactive)
- GI50 (COLO 205): > 100 µM (inactive)
- GI50 (CAKI-1): 56.5 µM (inactive)
- GI50 (HCT-15): > 100 µM
- GI50 (UACC-257): > 100 µM (inactive)
- GI50 (RXF 393): > 100 µM (inactive)
- GI50 (OVCAR-4): > 100 µM (inactive)
- GI50 (LXFL 529): > 100 µM (inactive)
- GI50 (CCRF-CEM): 80.4 µM (inactive)
- GI50 (SK-MEL-2): > 100 µM (inactive)
- GI50 (DMS-114): 35.2 µM (inactive)
- GI50 (NCI-H522): > 100 µM (inactive)
- GI50 (NCI-H460): > 100 µM (inactive)
- GI50 (HCT-116): 91.8 µM (inactive)
- GI50 (SR): > 100 µM (inactive)
- GI50 (RPMI-8226): 65.8 µM (inactive)
- GI50 (SNB-75): 45.7 µM (inactive)
- GI50 (DLD-1): > 100 µM (inactive)
- GI50 (A549): > 100 µM (inactive)
- GI50 (KM12): > 100 µM (inactive)
- GI50 (SF-268): > 100 µM (inactive)
- GI50 (ACHN): > 100 µM (inactive)
- GI50 (HOP-18): > 100 µM (inactive)
- GI50 (OVCAR-8): 82.6 µM (inactive)
- GI50 (K562): > 100 µM (inactive)
- GI50 (MOLT-4): > 100 µM (inactive)
- GI50 (Malme-3M): > 100 µM (inactive)
- GI50 (SW-620): > 100 µM (inactive)
- GI50 (SK-OV-3): > 100 µM (inactive)
- GI50 (786-0): > 100 µM (inactive)
- GI50 (IGROV-1): > 100 µM (inactive)
- GI50 (A498): > 100 µM (inactive)
- GI50 (OVCAR-5): > 100 µM (inactive)
- GI50 (M19-MEL): > 100 µM (inactive)
- GI50 (U-251): > 100 µM (inactive)
- GI50 (HL-60): 47.2 µM (inactive)
- GI50 (UO-31): 77.1 µM (inactive)
- GI50 (HT-29): > 100 µM (inactive)
- GI50 (SF-295): > 100 µM (inactive)
- GI50 (SK-MEL-5): > 100 µM (inactive)
- GI50 (LOX IMVI): 79.3 µM (inactive)

Compound: CSc1nc(-c2ccc(Cl)cc2)c(C#N)c(=O)n1C1OC(COC(C)=O)C(OC(C)=O)C(OC(C)=O)C1OC(C)=O (configuration not stated)
- GI50 (NCI-H226): 33 µM (inactive)
- GI50 (DMS-273): > 100 µM (inactive)
- GI50 (SN12C): > 100 µM (inactive)
- GI50 (TK-10): > 100 µM (inactive)
- GI50 (HCC 2998): > 100 µM (inactive)
- GI50 (COLO 205): > 100 µM (inactive)
- GI50 (CAKI-1): > 100 µM (inactive)
- GI50 (HCT-15): > 100 µM
- GI50 (XF498): > 100 µM (inactive)
- GI50 (SK-MEL-2): 53.8 µM (inactive)
- GI50 (OVCAR-3): 12.6 µM (inactive)
- GI50 (SR): > 100 µM (inactive)
- GI50 (DLD-1): > 100 µM (inactive)
- GI50 (A549): > 100 µM (inactive)
- GI50 (KM12): > 100 µM (inactive)
- GI50 (HOP-18): 29.9 µM (inactive)
- GI50 (EKVX): > 100 µM (inactive)
- GI50 (OVCAR-8): > 100 µM (inactive)
- GI50 (K562): > 100 µM (inactive)
- GI50 (MOLT-4): > 75 µM (inactive)
- GI50 (SW-620): > 100 µM (inactive)
- GI50 (786-0): > 100 µM (inactive)
- GI50 (IGROV-1): 57.1 µM (inactive)
- GI50 (HL-60): > 100 µM (inactive)
- GI50 (SK-MEL-5): > 100 µM (inactive)
